# Measured values: article PMC3985514 (Biochemistry, 2014)
# Several values for one entry are separate records, joined by “and”; a condition that tells them apart may be missing. Identical values can stand only once. Like-named read-outs stand apart in the source and are kept apart here.
# Biological target: Mtb NDH-2 (Mycobacterium tuberculosis, UniProt P95160)
# Type: biochemical
# Mtb NDH-2, sequence (P95160 whole entry): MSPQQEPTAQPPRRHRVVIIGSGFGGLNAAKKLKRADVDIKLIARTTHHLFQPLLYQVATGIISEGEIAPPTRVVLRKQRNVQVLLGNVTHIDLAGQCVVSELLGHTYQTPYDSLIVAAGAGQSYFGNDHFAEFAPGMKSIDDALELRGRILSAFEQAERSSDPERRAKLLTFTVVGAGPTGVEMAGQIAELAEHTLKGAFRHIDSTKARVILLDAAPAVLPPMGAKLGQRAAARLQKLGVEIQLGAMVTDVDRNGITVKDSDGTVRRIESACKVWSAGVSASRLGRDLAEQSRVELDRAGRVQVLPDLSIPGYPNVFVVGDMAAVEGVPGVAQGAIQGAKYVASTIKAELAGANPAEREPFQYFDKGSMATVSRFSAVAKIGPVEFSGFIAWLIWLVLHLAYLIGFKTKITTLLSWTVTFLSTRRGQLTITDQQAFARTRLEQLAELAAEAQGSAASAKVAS
smiles,measurement,setting,value
COC1=C(OC)C(=O)C(C)=CC1=O [UQ0],kcat,,570.0 ± 200 s^–1
same,kcat,"[…], NADH oxidation with the quinone as electron acceptor, [NADH] varied",580.0 ± 170 s^–1
same,kcat,"[…], ratio plot, [UQ0] = 6.25[NADH]",330 ± 15 s^–1
same,Vmax,"membrane-bound NDH-2, both with and without UQ1H2",0.12 ± 0.01 A340 min^–1 nM^–1
same,Km,"read-out: apparent KM value for UQ0, membrane-bound NDH-2, absence of UQ1H2 (Figure 6C)",350 ± 7 µM
"NC(=O)C1=CN([C@@H]2O[C@H](COP(=O)(O)OP(=O)(O)OC[C@H]3O[C@@H](n4cnc5c(N)ncnc54)[C@H](O)[C@@H]3O)[C@@H](O)[C@H]2O)C=CC1 [NADH, nicotinamide adenine dinucleotide, reduced form]",Km,"read-out: KM for NADH (average), membrane-bound NDH-2 with UQ0, average",280 µM
same,Km,read-out: KM^NADH,240 µM and 320 µM
COc1c(O)c(C)c(CC=C(C)C)c(O)c1OC [UQ1H2],inhibition,"1.0 mM UQ1H2, 0.05 mM UQ1 as electron acceptor, membrane-bound NDH-2",30 ± 10%
same,increase in activity,"UQ0 as electron acceptor, membrane-bound NDH-2",up to 5 fold
